Source: ChEMBL document CHEMBL2429758, “3-aroylmethylene-2,3,6,7-tetrahydro-1H-pyrazino[2,1-a]isoquinolin-4(11bH)-ones as potent Nrf2/ARE inducers in human cancer cells and AOM-DSS treated mice” (J Med Chem, 2013)
Active and inactive are the calls of the source. The rule behind the calls is not given here.

Key:
HCT-116 [1] = assay: Induction of NQO1 expression in human HCT116 cells up to 24 hrs by Western blot analysis; assay type: functional, cell-based
HCT-116 [2] = assay: Induction of HO-1 expression in human HCT116 cells up to 8 hrs by Western blot analysis; assay type: functional, cell-based
[3] = biological target: T1, Nuclear factor erythroid 2-related factor 2 (Homo sapiens) (UniProt Q16236); assay: Induction of Nrf2-mediated ARE activity in human HepG2-ARE-C8 cells at 10 uM after 12 hrs by luciferase reporter gene assay relative to control; assay type: cell-based
T1 sequence (whole entry): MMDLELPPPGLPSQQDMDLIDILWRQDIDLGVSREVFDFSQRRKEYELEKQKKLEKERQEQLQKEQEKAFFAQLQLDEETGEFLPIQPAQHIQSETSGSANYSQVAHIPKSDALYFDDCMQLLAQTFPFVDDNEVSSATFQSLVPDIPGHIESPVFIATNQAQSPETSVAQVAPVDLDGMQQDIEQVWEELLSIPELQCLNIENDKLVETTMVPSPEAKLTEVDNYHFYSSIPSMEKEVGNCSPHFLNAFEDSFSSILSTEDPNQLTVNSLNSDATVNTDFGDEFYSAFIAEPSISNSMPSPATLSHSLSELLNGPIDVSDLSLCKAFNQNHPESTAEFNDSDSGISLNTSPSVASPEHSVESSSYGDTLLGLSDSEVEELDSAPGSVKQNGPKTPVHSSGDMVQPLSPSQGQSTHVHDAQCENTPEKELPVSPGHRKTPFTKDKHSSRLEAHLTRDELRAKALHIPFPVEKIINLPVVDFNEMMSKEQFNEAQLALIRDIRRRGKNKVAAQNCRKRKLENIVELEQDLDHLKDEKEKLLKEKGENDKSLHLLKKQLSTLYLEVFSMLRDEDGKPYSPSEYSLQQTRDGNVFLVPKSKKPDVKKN

[4] = biological target: T1, Nuclear factor erythroid 2-related factor 2 (Homo sapiens); assay: Induction of Nrf2-mediated ARE activity in human HepG2-ARE-C8 cells at 5 uM after 12 hrs by luciferase reporter gene assay relative to control; assay type: cell-based
[5] = biological target: T1, Nuclear factor erythroid 2-related factor 2 (Homo sapiens); assay: Induction of Nrf2-mediated ARE activity in human HepG2-ARE-C8 cells at 1 uM after 12 hrs by luciferase reporter gene assay relative to control; assay type: cell-based
[6] = biological target: T1, Nuclear factor erythroid 2-related factor 2 (Homo sapiens); assay: Induction of Nrf2-mediated ARE activity in human HepG2-ARE-C8 cells at 0.1 uM after 12 hrs by luciferase reporter gene assay relative to control; assay type: cell-based
[7] = biological target: T1, Nuclear factor erythroid 2-related factor 2 (Homo sapiens); assay: Induction of Nrf2-mediated ARE activity in human HepG2-ARE-C8 cells at 0.01 uM after 12 hrs by luciferase reporter gene assay relative to control; assay type: cell-based
Mus musculus [8] = assay: Toxicity in azoxymethane dextran sodium sulfate C57BL/6 mouse model assessed as sign of toxicity at 50 mg/kg/day treated with food measured after 130 days; assay type: organism-based; details: in vivo, 3120 h
Mus musculus [9] = assay: Toxicity in azoxymethane dextran sodium sulfate C57BL/6 mouse model assessed as change body weight at 50 mg/kg/day treated with food measured after 130 days; assay type: organism-based; details: in vivo, 3120 h
Mus musculus [10] = assay: Antiinflammatory activity in azoxymethane dextran sodium sulfate C57BL/6 mouse model assessed as reduction of IL-6 expression at 50 mg/kg/day treated with food measured after 130 days by immunohistochemical analysis; assay type: functional, organism-based
Mus musculus [11] = assay: Antiinflammatory activity in azoxymethane dextran sodium sulfate C57BL/6 mouse model assessed as reduction of IL-1beta expression at 50 mg/kg/day treated with food measured after 130 days by immunohistochemical analysis; assay type: functional, organism-based
Mus musculus [12] = assay: Chemopreventive activity in azoxymethane dextran sodium sulfate C57BL/6 mouse model assessed as reduction of developed dysplasia at 50 mg/kg/day treated with food measured after 130 days by hematoxylin and eosin staining; assay type: functional, organism-based
Mus musculus [13] = assay: Chemopreventive activity in azoxymethane dextran sodium sulfate C57BL/6 mouse model assessed as increase of lymphocyte ratio at 50 mg/kg/day treated with food measured after 130 days (reference value: 87.75 +/- 2.16%); assay type: functional
Mus musculus [14] = assay: Chemopreventive activity in azoxymethane dextran sodium sulfate C57BL/6 mouse model assessed as reduction of neutrophils ratio at 50 mg/kg/day treated with food measured after 130 days (reference value: 12.73 +/- 1.65%); assay type: functional; design: scale not given: the % may be the effect or the level left
Mus musculus [15] = assay: Chemopreventive activity in azoxymethane dextran sodium sulfate C57BL/6 mouse model assessed as increase of WBC level at 50 mg/kg/day treated with food measured after 130 days (reference value: 5.33 +/- 1.34 10^9/L); assay type: functional
Mus musculus [16] = assay: Chemopreventive activity in azoxymethane dextran sodium sulfate C57BL/6 mouse model assessed as reduction of length of colon at 50 mg/kg/day treated with food measured after 130 days (reference value: 5.62 +/- 0.69 centimeter); assay type: functional
Mus musculus [17] = assay: Chemopreventive activity in azoxymethane dextran sodium sulfate C57BL/6 mouse model assessed as reduction of tumor burden at 50 mg/kg/day treated with food measured after 130 days; assay type: functional, organism-based
Mus musculus [18] = assay: Chemopreventive activity in azoxymethane dextran sodium sulfate C57BL/6 mouse model assessed as reduction of average size of tumor at 50 mg/kg/day treated with food measured after 130 days; assay type: functional
Mus musculus [19] = assay: Chemopreventive activity in azoxymethane dextran sodium sulfate C57BL/6 mouse model assessed as reduction of multiplicity of tumor at 50 mg/kg/day treated with food measured after 130 days; assay type: functional, organism-based
Mus musculus [20] = assay: Chemopreventive activity in azoxymethane dextran sodium sulfate C57BL/6 mouse model assessed as reduction of tumor incidence at 50 mg/kg/day treated with food measured after 130 days; assay type: functional; design: scale not given: the % may be the effect or the level left
[21] = biological target: T1, Nuclear factor erythroid 2-related factor 2 (Homo sapiens); assay: Induction of Nrf2 nuclear translocation in human HCT116 cells at 10 uM by Western blot analysis; assay type: cell-based; details: HCT-116
HCT-116 [22] = assay: Induction of NQO1 expression in human HCT116 cells at 10 uM by Western blot analysis; assay type: functional, cell-based; details: TDE = time-dependent effect
HCT-116 [23] = assay: Induction of HO-1 expression in human HCT116 cells at 10 uM by Western blot analysis; assay type: functional, cell-based; details: TDE = time-dependent effect
[24] = biological target: T1, Nuclear factor erythroid 2-related factor 2 (Homo sapiens); assay: Induction of Nrf2-mediated ARE activity in human HepG2-ARE-C8 cells after 12 hrs by luciferase reporter gene assay; assay type: cell-based
Mus musculus [25] = assay: Chemopreventive activity in azoxymethane dextran sodium sulfate C57BL/6 mouse model assessed as induction of Nrf2 nuclear translocation at 50 mg/kg/day treated with food measured after 130 days immunofluorescence analysis; assay type: functional, organism-based
[26] = biological target: T1, Nuclear factor erythroid 2-related factor 2 (Homo sapiens); assay: Induction of Nrf2-mediated ARE activity in human HepG2-ARE-C8 cells at 80 uM after 12 hrs by luciferase reporter gene assay relative to control; assay type: cell-based
[27] = biological target: T1, Nuclear factor erythroid 2-related factor 2 (Homo sapiens); assay: Induction of Nrf2-mediated ARE activity in human HepG2-ARE-C8 cells at 40 uM after 12 hrs by luciferase reporter gene assay relative to control; assay type: cell-based
[28] = biological target: T1, Nuclear factor erythroid 2-related factor 2 (Homo sapiens); assay: Induction of Nrf2-mediated ARE activity in human HepG2-ARE-C8 cells at 20 uM after 12 hrs by luciferase reporter gene assay relative to control; assay type: cell-based

**Q.** `O=C(/C=C1\NCC2c3ccccc3CCN2C1=O)c1cccc(F)c1` (stereo unspecified) was tested. Which Activity (HCT-116 [1]) did it give?
**A.** Its Activity is “Dose-dependent effect”.

**Q.** What about the Activity (HCT-116 [2]) of the same compound?
**A.** Its Activity is “Dose-dependent effect”.

**Q.** What about the fold change (FC) [3] of the same compound?
**A.** The fold change (FC) was 33.

**Q.** What about the fold change (FC) [4] of the same compound?
**A.** The fold change (FC) was 29.1.

**Q.** What about the fold change (FC) [5] of the same compound?
**A.** The fold change (FC) was 9.99.

**Q.** What about the fold change (FC) [6] of the same compound?
**A.** The fold change (FC) was 3.89.

**Q.** What about the fold change (FC) [7] of the same compound?
**A.** The fold change (FC) was 2.18.

**Q.** Which results are given for `O=C(/C=C1\NCC2c3ccccc3CCN2C1=O)c1ccccc1` (stereo unspecified)?
**A.** Activity (Mus musculus [8]): Non-toxic; Activity (Mus musculus [9]): Non-toxic; inhibition (Mus musculus [10]): Active; inhibition (Mus musculus [11]): Active; Activity (Mus musculus [12]): Active; Activity (Mus musculus [13]): 88.15%; Activity (Mus musculus [14]): 12.39%; Activity (Mus musculus [15]): 5.67 ×10⁹ /L; Activity (Mus musculus [16]): 4.59 cm; Activity (Mus musculus [17]): Active; Activity (Mus musculus [18]): 2.2 mm; Activity (Mus musculus [19]): Active; Activity (Mus musculus [20]): 50%; Activity [21]: Active; Activity (HCT-116 [1]): Dose-dependent effect; Activity (HCT-116 [2]): Dose-dependent effect; Activity (HCT-116 [22]): tde; Activity (HCT-116 [23]): tde; Activity [24]: Dose-dependent effect; fold change (FC) [3]: 26.9; fold change (FC) [4]: 18.9; fold change (FC) [5]: 9.51; fold change (FC) [6]: 5.44; fold change (FC) [7]: 2; Activity (Mus musculus [25]): Active

**Q.** How did the fold change (FC) [26] turn out when `CC(C)(C)c1cc(O)ccc1O` was run?
**A.** The fold change (FC) was 5.21.

**Q.** And the fold change (FC) [27]?
**A.** The fold change (FC) was 3.24.

**Q.** What about the fold change (FC) [28] of the same compound?
**A.** The fold change (FC) was 2.06.

**Q.** And the fold change (FC) [3]?
**A.** Its fold change (FC) is 1.5.

**Q.** What about the fold change (FC) [4] of the same compound?
**A.** Its fold change (FC) is 1.04.

**Q.** `C[S+]([O-])CCCCN=C=S` (stereo unspecified) was tested. Which fold change (FC) [28] did it give?
**A.** The fold change (FC) was 18.1.

**Q.** What about the fold change (FC) [3] of the same compound?
**A.** Its fold change (FC) is 8.35.

**Q.** What about the fold change (FC) [4] of the same compound?
**A.** Its fold change (FC) is 5.52.

**Q.** And the fold change (FC) [5]?
**A.** Its fold change (FC) is 2.7.
